Results reported in patent US20180333382A1, “PHARMACEUTICAL COMPOSITIONS COMPRISING DGLA AND USE OF SAME” (DS Biopharma Limited, priority 2017, published 2018).
Read-outs that look alike come from different tables or passages of the source.

Test: Phase one study part 1: single dose plasma PK of free and total DGLA, fasted
Format: in vivo, human
Details: for half-life / Tmax: both sexes, human, plasma, oral; for half-life: read-out: t1/2, median, free DGLA, baseline-corrected plasma (converted)
Protocol: A single-center, double-blind, randomized, placebo-controlled, two part Phase one study was performed in healthy male and female subjects aged 18 to 45 years inclusive. The primary objective of this study was to assess the safety and plasma pharmacokinetics (PK) of orally administered single doses and orally administered multiple doses of DS107G capsules (once daily for 28 days) in healthy subjects.
Subjects were randomly assigned in a 3:1 ratio of DG107G to placebo by block randomization. Single dose part one of the study comprised three cohorts of eight subjects each, with the addition of Cohort four based on evaluation of the safety data of Cohort three by the Safety Monitoring Committee (SMC). A single oral dose of DS107G or matching placebo was administered to fasted subjects in Cohorts one to three (500, 1000, and 2000 mg, respectively) in parallel; subjects in Cohort four were administered a dose of 4000 mg following completion of Cohort three. Subjects in Cohort two received 1000 mg or matching placebo in the fed state at 14 days after the first dose.
Safety assessments were monitored throughout the study.
In Part one of the study, subjects in Cohorts one to three were administered a single dose of study drug (either 500-, 1000-, or 2000-mg as 500-mg DS107G capsules or matching placebo capsules) in parallel on study Day 1 after at least an 8-hour fast, according to Table 20. Cohort 4 was initiated following the review of safety data from Cohort 3 by the SMC.
Analysis of populations included the following: • The Intention-to-Treat (ITT) population consists of all randomized subjects who had been administered at least 1 dose of study drug. • The Per Protocol (PP) population consists of all subjects in the ITT population who had no major protocol violation, as defined in the SAP. • The PK population contains all subjects included in the PP population who had evaluable PK data derived from plasma. A plasma concentration observation was considered a valid, evaluable measurement if the following data were available: study identification number, randomization number, date and time of sampling, dose and concentration. A series of such measurements from the same sample were considered complete if each protocol prescribed concentration was evaluable. Plasma PK data were evaluable by definition if the data contained a complete series of observations. Any missing plasma PK observation would result in incomplete PK data, thus a subject with any missing plasma PK observation was excluded from the PK population. Subjects randomized to placebo were also excluded from the PK population.

Which results are given for `CCCCC/C=C\C/C=C\C/C=C\CCCCCCC(=O)O` [DS107G, Dihomo gamma linolenic acid]?
AUC0-24, mean, free DGLA, baseline-corrected plasma (500 mg single dose): 2728.1 ng·h/mL; AUC0-24/Dose, mean, free DGLA, baseline-corrected plasma (500 mg single dose): 5.46 h/kL; AUC0-24/Dose, mean, total DGLA, baseline-corrected plasma (500 mg single dose): 79.11 h/kL; AUC0-inf, mean, free DGLA, baseline-corrected plasma (500 mg single dose): 21483.3 ng·h/mL; AUC0-inf/Dose, mean, free DGLA, baseline-corrected plasma (500 mg single dose): 42.97 h/kL; AUC0-inf/Dose, mean, total DGLA, baseline-corrected plasma (500 mg single dose): 8831.93 h/kL; CL/F, mean, free DGLA, baseline-corrected plasma (500 mg single dose): 0.0306 kL/h; Cmax, mean, free DGLA, baseline-corrected plasma (500 mg single dose): 934.6 ng/mL; Cmax/Dose, mean, free DGLA, baseline-corrected plasma (500 mg single dose): 1.869 kL⁻¹; Cmax/Dose, mean, total DGLA, baseline-corrected plasma (500 mg single dose): 14.400 kL⁻¹; λz, mean, free DGLA, baseline-corrected plasma (500 mg single dose): 0.0035 h⁻¹; λz, mean, total DGLA, baseline-corrected plasma (500 mg single dose): 0.0013 h⁻¹; AUC0-24, mean, free DGLA, baseline-corrected plasma (1000 mg single dose): 3998.5 ng·h/mL; AUC0-24/Dose, mean, free DGLA, baseline-corrected plasma (1000 mg single dose): 4.00 h/kL; AUC0-24/Dose, mean, total DGLA, baseline-corrected plasma (1000 mg single dose): 215.37 h/kL; AUC0-inf, mean, free DGLA, baseline-corrected plasma (1000 mg single dose): 218955.6 ng·h/mL; AUC0-inf/Dose, mean, free DGLA, baseline-corrected plasma (1000 mg single dose): 218.96 h/kL; AUC0-inf/Dose, mean, total DGLA, baseline-corrected plasma (1000 mg single dose): 4031.41 h/kL; CL/F, mean, free DGLA, baseline-corrected plasma (1000 mg single dose): 0.1866 kL/h; Cmax, mean, free DGLA, baseline-corrected plasma (1000 mg single dose): 1602.8 ng/mL; Cmax/Dose, mean, free DGLA, baseline-corrected plasma (1000 mg single dose): 1.603 kL⁻¹; Cmax/Dose, mean, total DGLA, baseline-corrected plasma (1000 mg single dose): 15.750 kL⁻¹; λz, mean, free DGLA, baseline-corrected plasma (1000 mg single dose): 0.0487 h⁻¹; λz, mean, total DGLA, baseline-corrected plasma (1000 mg single dose): 0.0136 h⁻¹; AUC0-24, mean, free DGLA, baseline-corrected plasma (2000 mg single dose): 6429.0 ng·h/mL; AUC0-24/Dose, mean, free DGLA, baseline-corrected plasma (2000 mg single dose): 3.21 h/kL; AUC0-24/Dose, mean, total DGLA, baseline-corrected plasma (2000 mg single dose): 105.25 h/kL; AUC0-inf, mean, free DGLA, baseline-corrected plasma (2000 mg single dose): 26877.0 ng·h/mL; AUC0-inf/Dose, mean, free DGLA, baseline-corrected plasma (2000 mg single dose): 13.44 h/kL; AUC0-inf/Dose, mean, total DGLA, baseline-corrected plasma (2000 mg single dose): 1138.25 h/kL; CL/F, mean, free DGLA, baseline-corrected plasma (2000 mg single dose): 0.1339 kL/h; Cmax, mean, free DGLA, baseline-corrected plasma (2000 mg single dose): 2074.0 ng/mL; Cmax/Dose, mean, free DGLA, baseline-corrected plasma (2000 mg single dose): 1.037 kL⁻¹; Cmax/Dose, mean, total DGLA, baseline-corrected plasma (2000 mg single dose): 8.867 kL⁻¹; λz, mean, free DGLA, baseline-corrected plasma (2000 mg single dose): 0.0200 h⁻¹; λz, mean, total DGLA, baseline-corrected plasma (2000 mg single dose): 0.0084 h⁻¹; AUC0-24, mean, free DGLA, baseline-corrected plasma (4000 mg single dose): 9436.8 ng·h/mL; AUC0-24/Dose, mean, free DGLA, baseline-corrected plasma (4000 mg single dose): 2.36 h/kL; AUC0-24/Dose, mean, total DGLA, baseline-corrected plasma (4000 mg single dose): 109.44 h/kL; AUC0-inf, mean, free DGLA, baseline-corrected plasma (4000 mg single dose): 17113.6 ng·h/mL; AUC0-inf/Dose, mean, free DGLA, baseline-corrected plasma (4000 mg single dose): 4.28 h/kL; AUC0-inf/Dose, mean, total DGLA, baseline-corrected plasma (4000 mg single dose): 1493.38 h/kL; CL/F, mean, free DGLA, baseline-corrected plasma (4000 mg single dose): 0.2420 kL/h; Cmax, mean, free DGLA, baseline-corrected plasma (4000 mg single dose): 3021.8 ng/mL; Cmax/Dose, mean, free DGLA, baseline-corrected plasma (4000 mg single dose): 0.755 kL⁻¹; Cmax/Dose, mean, total DGLA, baseline-corrected plasma (4000 mg single dose): 6.471 kL⁻¹; λz, mean, free DGLA, baseline-corrected plasma (4000 mg single dose): 0.0603 h⁻¹; λz, mean, total DGLA, baseline-corrected plasma (4000 mg single dose): 0.0102 h⁻¹; half-life (500 mg single dose): 206 h; Tmax (500 mg single dose, read-out: tmax, median, free DGLA, baseline-corrected plasma): 4 h; half-life (1000 mg single dose): 28.3 h; Tmax (1000 mg single dose, read-out: tmax, median, free DGLA, baseline-corrected plasma): 4 h; half-life (2000 mg single dose): 57.3 h; Tmax (2000 mg single dose, read-out: tmax, median, free DGLA, baseline-corrected plasma): 4 h; half-life (4000 mg single dose): 67.5 h; Tmax (4000 mg single dose, read-out: tmax, median, free DGLA, baseline-corrected plasma): 4 h; Tmax (single dose 500-4000 mg, read-out: median time to maximum concentration (Tmax), free DGLA): 4 h; dose dependence of mean baseline-corrected Cmax and AUC0-24, free and total DGLA (single dose 500-4000 mg): increased in a linear manner
